In patent US20040097539A1, “Hsp inductor” (priority 2001, published 2004):

How the values were obtained:
human COX-2 = target: T1, human COX-2 (Homo sapiens, UniProt P35354); test: COX-2 inhibiting activity (chemiluminescence, microsome fractions); type: biochemical; conditions: microsome fractions from COX-2 expressing Sf-21 cells, 37° C. 25 min preincubation, arachidonic acid
T1 construct: made in house; host or cells: Sf-21 insect cells, recombinant baculovirus BAC-COX2 (pFASTBAC1), microsome fraction
T1 sequence (P35354 18-604): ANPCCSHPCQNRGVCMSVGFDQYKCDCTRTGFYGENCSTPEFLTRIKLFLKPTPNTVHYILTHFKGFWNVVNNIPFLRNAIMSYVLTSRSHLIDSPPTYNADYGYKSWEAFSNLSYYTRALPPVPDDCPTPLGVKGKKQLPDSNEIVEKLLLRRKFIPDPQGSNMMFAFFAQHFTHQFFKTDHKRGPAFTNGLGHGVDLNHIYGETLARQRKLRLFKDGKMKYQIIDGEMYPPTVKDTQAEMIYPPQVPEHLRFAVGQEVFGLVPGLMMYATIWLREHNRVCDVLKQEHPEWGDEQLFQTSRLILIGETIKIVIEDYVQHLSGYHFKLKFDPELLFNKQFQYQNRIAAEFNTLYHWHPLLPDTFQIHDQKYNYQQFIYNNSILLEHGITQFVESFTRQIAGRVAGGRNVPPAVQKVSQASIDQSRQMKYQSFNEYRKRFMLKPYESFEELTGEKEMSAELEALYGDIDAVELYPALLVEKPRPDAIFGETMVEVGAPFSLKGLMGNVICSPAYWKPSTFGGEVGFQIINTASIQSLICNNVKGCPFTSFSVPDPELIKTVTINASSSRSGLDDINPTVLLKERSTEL
Experimental: A 1.8 kb DNA fragment containing human COX-2 cDNA (Proc. Natl. Acad. Sci. U.S.A., 89 (16), 7384-7388-(1992)) prepared by the PCR method was inserted into plasmid pFASTBAC1 (CIBCOBRAL) to obtain a plasmid pFBCOX2.
Using the plasmid pFBCOX2 and BAC-TO-BAC Baculovirus Expression System (GIBCOBRAL), a virus stock BAC-COX2 of the recombinant baculovirus was prepared.
Sf-21 cells were inoculated in 125 mL of LSf-900 II SFM medium (GIBCOBRAL) at a concentration of 1×10^6 cells/mL, and the medium was incubated at 27° C. for 24 hrs. 0.75 mL of the virus stock BAC-COX2 of the recombinant baculovirus was added, and was incubated for additional 72 hrs. The cells were separated from the medium by centrifugation (3000 rpm, 10 min.), and washed twice with PBS. The cells were suspended in 10 mL of a Lysis buffer (0.1 M Tris-HCl (pH 7.4), 5 mM EDTA), and were treated with a homogenizer (POLYTRON), three times at 20000 rpm for 20 sec. so that the cells were crushed. The supernatant thus obtained after centrifugation (2000 rpm, 10 min.) was further centrifuged (40000 rpm, 45 min.) to obtain a precipitate, which was resuspended in a Lysis buffer (0.1 M Tris-HCl (pH 7.4), 5 mM EDTA), and the suspension was stored at −80° C.
(§1) To a mixture of […] of a reaction buffer previously concentrated 10 times (1 M Tris-HCl (pH 8.0), 50 mM EDTA, 1.0% Tween 20, 50 mM luminol, 100 mM hematin), 20 mL of the microsome fractions (COX-1: 40 mg, COX-2: 20 mg), and […] of distilled water, a sample compound dissolved in DMF (5 mL) was added, and the mixture was left at 37° C. for 25 min. The reaction was started by the addition of 20 mM arachidonic acid ([…]), and chemiluminescence amount during the 10-second period after the addition of arachidonic acid was determined by the use of Lumistar (BMG Lab technologies, GmbH). The inhibition rate was calculated, regarding that the enzyme activity when DMF ([…]) was added was 100%, and the enzyme activity was 0% when 4 mM flurbiprofen (5 mL) was added.

human COX-1 = target: T2, human COX-1 (Homo sapiens, UniProt P23219); test: COX-1 inhibiting activity (chemiluminescence, microsome fractions); type: biochemical; conditions: microsome fractions from COX-1 expressing Sf-21 cells, 37° C. 25 min preincubation, arachidonic acid
T2 construct: made in house; host or cells: Sf-21 insect cells, recombinant baculovirus BAC-COX1 (pFASTBAC1), microsome fraction
T2 sequence (P23219 24-599): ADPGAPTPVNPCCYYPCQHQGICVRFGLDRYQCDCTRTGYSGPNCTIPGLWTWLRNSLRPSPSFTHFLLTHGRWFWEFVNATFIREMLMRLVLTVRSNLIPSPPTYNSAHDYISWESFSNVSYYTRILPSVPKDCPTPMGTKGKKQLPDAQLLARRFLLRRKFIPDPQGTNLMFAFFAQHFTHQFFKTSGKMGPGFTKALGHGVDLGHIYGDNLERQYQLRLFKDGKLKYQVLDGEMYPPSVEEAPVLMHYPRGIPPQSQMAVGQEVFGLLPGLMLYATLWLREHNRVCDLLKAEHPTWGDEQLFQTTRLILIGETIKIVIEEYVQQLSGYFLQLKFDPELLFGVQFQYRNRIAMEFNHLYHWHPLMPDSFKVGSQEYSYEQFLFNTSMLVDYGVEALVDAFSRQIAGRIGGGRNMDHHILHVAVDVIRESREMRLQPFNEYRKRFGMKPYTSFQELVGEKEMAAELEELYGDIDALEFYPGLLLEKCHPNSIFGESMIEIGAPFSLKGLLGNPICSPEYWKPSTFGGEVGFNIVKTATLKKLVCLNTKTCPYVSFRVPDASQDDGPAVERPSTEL
Experimental: A 1.8 kb DNA fragment containing human COX-1 cDNA (FASEB J., 5 (9), 2304-2312 (1991)) prepared by the PCR method was inserted into plasmid pFASTBAC1 (CIBCOBRL) to obtain a plasmid pFBCOX1.
Using the plasmid pFBCOX1 and BAC-TO-BAC Baculovirus Expression System (GIBCOBRL), a virus stock BAC-COX1 of the recombinant baculovirus was prepared.
Sf-21 cells were inoculated in 125 mL of Sf-900 II SFM medium (GIBCOBRL) at a concentration of 1×10^6 cells/mL, and the medium was incubated at 27° C. for 24 hrs. 0.75 mL of the virus stock BAC-COX1 of the recombinant baculovirus was added, and the mixture was incubated for additional 72 hrs. The cells were separated from the medium by centrifugation (3000 rpm, 10 min.), and washed with PBS twice. The cells were suspended in 10 mL of a lysis buffer (0.1 M Tris-HCl (pH 7.4), 5 mM EDTA), and were treated with a homogenizer (POLYTRON) three times at 20000 rpm for 20 seconds so that the cells were crushed. The supernatant obtained after centrifugation (2000 rpm, 10 min.) was further centrifuged (40000 rpm, 45 min.) to give a precipitate, which was resuspended in a Lysis buffer (0.1 M Tris-HCl (pH 7.4), 5 mM EDTA), and the suspension was stored at −80° C.
as §1

Male SD rats [1] = test: Carrageenin edema test; type: in vivo; conditions: oral, 1 hr before 1% carrageenin in footpad, foot volume after 2 hr and 3 hr
Experimental: Male SD rats (6-week-old, CLEA Japan) were used (6 rats per group). The carrageenin edema test was performed in accordance with the method of Winter et al. (Proc. Soc. Exp. Biol. Med., 111, 544-547, 1962). The volume of the footpad of the right hind limb was measured. Then, the test compound was orally administered (1.0 mL/100 g body weight), and immediately thereafter, water was orally administered to 5 mL/rat. Vehicle alone was orally administered to control group. After 1 hr., 0.05 mL of saline containing 1% carrageenin was subcutaneously injected into the footpad of the right hind limb to induce edema. After 2 hr. and 3 hr., the volume of the footpad of the right hind limb was measured. For the effects of the compound, the difference in the volume of the foot before and 2 hr. and 3 hr. after the carrageenin injection was determined, from which inhibitory rate (%) relative to the control group was calculated, and ID30 was determined.

Male SD rats [2] = test: Test for gastric mucosa disorder; type: in vivo; conditions: oral 300 mg/kg, stomach examined after 24 hr
Experimental: Male SD rats (6 rats, 7 weeks old, CLEA Japan) were used. The test compound was orally administered (5 mL/kg, b.w.) to the rats after 24 hr-fasting or without fasting. After 23.5 hrs., the rats were intravenously injected with Evan's Blue (0.5% Evan's Blue/saline, 1 mL/rat) without anesthesia. After 30 min., the rats were laparotomized and stomach was excised. Esophagus was clipped. A 1% formalin solution (8 mL) was infused to the esophagus, and duodenum was clipped. The stomach was immersed in a 1% formalin solution for 10 min. or more, and sectioned along the line from duodenum to greater curvature of the stomach. After washing the stomach, the total length (mm^2) of the site (hemorrhage site: detachment of mucosa-ulcer) stained with Evan's Blue was measured with a counter under a stereomicroscope and recorded.

HSP27 gene expression = test: HSP27-inducing activity in gastric mucosa (TaqMan PCR); type: in vivo; conditions: rats, oral 30 mg/ml, gastric mucosa 2 hr after administration
Experimental: Compound A (30 mg/ml) and vehicle were orally administered to rats. After 2 hr., stomach was excised from the rats, opened and washed with ice-cooled physiological saline. Gastric mucosa was taken from the stomach using sterilized cover glass, and immediately suspended in ISOGEN (Wako Pure Chemical Industries, Ltd.). Total RNA was prepared from the gastric mucosa according to instructions, and purified by RNAeasy Midi Kit (QIAGEN). Then cDNA was synthesized from the total RNA using TaqMan Gold RT-PCR Kit (Applied Biosystems), and subjected to TaqMan PCR using ABI7700 (Applied Biosystems), based on which the amount of HSP 27 gene expression was determined. Forward primer used was 5′-[…]-3′ (SEQ ID NO:1), Reverse primer used was 5′-[…]-3′ (SEQ ID NO:2), and TaqMan probe used was 5′-[…]-3′ (SEQ ID NO:3) labeled with FAM (6-carboxyfluorescein). Additionally, the amount of GAPDH gene expression was determined using TaqMan Rodent GAPDH Control Reagents VIC probe (Applied Biosystems) and G3PDH cDNA Control probe (CLONTECH), and the amount was employed as an internal control. The amount of HSP27 gene expression is shown by the values calibrated with an amount of internal control (i.e., GAPDH gene) expression (Table 4).

Male ICR-mice = test: Acetic acid rising method (analgesic activity); type: in vivo; conditions: oral, 30 min before 0.6% acetic acid i.p., rising and stretching counted for 20 min
Experimental: Male ICR-mice (5 weeks old, CLEA Japan) were used (1 group, 10 mice), and a sample was orally administered (0.2 mL/10 g, b.w.). After 30 min., 0.6% acetic acid solution was injected to mice intraperitoneally (0.1 mL/10 g, b.w.), and the mice were immediately transferred into an observation cage made of a transparent acrylic resin. The number of mice rising and stretching during the following period of 20 min. was counted. The repression rate (%) was calculated by comparing the average numbers between the sample groups and the control groups and ID50 value was calculated.

| IC50 (human COX-2) [nM] | IC50 (human COX-1) [nM] | Area of lesion (mm^2) (average), Administration after 24 hr-fasting (Male SD rats [2]; after 24 hr-fasting) | Area of lesion (mm^2) (average), Administration without fasting (Male SD rats [2]; without fasting) | SMILES | ID30 (Male SD rats [1]) [mg/kg] | HSP27/GAPDH (x10^4) (HSP27 gene expression; calibrated with GAPDH expression) | HSP27/GAPDH (% of control) (HSP27 gene expression; relative to vehicle) | ID50 (Male ICR-mice) [mg/kg] |
| --- | --- | --- | --- | --- | --- | --- | --- | --- |
| 295 | 527 | – | – | Cc1nn(-c2ccccn2)c2[nH]c3cc(F)c(F)cc3c(=O)c12 [Compound B, 6,7-Difluoro-3-methyl-1-(2-pyridinyl)-1,9-dihydro-4H-pyrazolo[3,4-b]quinolin-4-one] | – | – | – | – |
| 360 | 600 | – | – | O=c1c2cc(Cl)ccc2[nH]c2c1cnn2-c1ccccn1 [Compound D, 6-Chloro-1-(2-pyridinyl)-1,9-dihydro-4H-pyrazolo[3,4-b]quinolin-4-one] | – | – | – | – |
| 380 | 450 | 0.2 | 0 | Cc1nn(-c2ccccn2)c2[nH]c3ccc(C(F)(F)F)cc3c(=O)c12 [Compound A, 3-Methyl-1-(2-pyridinyl)-6-(trifluoromethyl)-1,9-dihydro-4H-pyrazolo[3,4-b]quinolin-4-one] | 2.2 | 197 ± 20 | (277) % of control | 0.9 |
| 213 | 263 | – | – | Cc1nn(-c2ccccn2)c2[nH]c3cc(F)c(Cl)cc3c(=O)c12 [Compound C, 6-Chloro-7-fluoro-3-methyl-1-(2-pyridinyl)-1,9-dihydro-4H-pyrazolo[3,4-b]quinolin-4-one] | – | – | – | – |
